Experimental data reported in paper PMC5393024, “Discovery and characterization of natural tropolones as inhibitors of the antibacterial target CapF from Staphylococcus aureus” (Scientific Reports, 2015).

Columns and labels:
CapF [1] = assay: SPR binding to immobilized CapF; parameters: species or system Staphylococcus aureus; details: 25 °C
Excerpt: To identify small-molecule inhibitors of CapF we employed fragment-based methodologies (Supplementary Information Figure S1)[13][14]. A fragment library consisting of 1,994 compounds was obtained from the Drug Discovery Initiative program (The University of Tokyo, see the Methods section for an brief description of the features of this library). This library was employed to screen for potential inhibitors of CapF using the technique of surface plasmon resonance (SPR). This screening methodology identified compounds with the ability to bind to the target protein but not by their inhibitory potency. Inhibition was only assessed with the selected hit compound using two separate enzymatic assays (see below). To maximize the sensitivity of the SPR signal the microtiter-based assay mode was employed. The values of the parameters CV (1.0%) and Z-factor (0.93) were monitored throughout the screen. […]
A total of 15 compounds selected from the library screening were next evaluated with SPR at three different concentrations (100 μM, 10 μM, and 1 μM) to detect compounds giving false positive signals, which are generally known as nonspecific and promiscuous binders. […] Lastly, we determined the binding affinity of these five compounds for CapF with SPR. […]

CapF [2] = assay: HPLC-based inhibition assay (CapE/CapF coupled reaction); assay type: biochemical, Staphylococcus aureus; details: 1 mM compound, 37 °C, 2 hours
Experimental: For that purpose, an HPLC-based assay monitoring the consumption of substrate and the appearance of product was employed (Fig. 2b)[12]. Whereas in the absence of 3-isopropenyl-tropolone the substrate was converted into product with nearly quantitative yield (91%), in the presence of 1 mM 3-isopropenyl-tropolone the peaks corresponding to substrate and product were largely absent (their combined areas were <18%). Instead, a large peak corresponding to the byproduct generated by the enzyme CapE under thermodynamic control was observed (80% yield as judged from the area under the curve). To confirm that inhibition of 3-isopropenyl-tropolone is specific for CapF we performed an additional experiment employing only CapE, which is the enzyme generating the substrate for CapF in the functional assay (Supplementary Information Figure S2).
For the HPLC-based inhibition assay, a solution containing 1.0 μM CapE, 0.02 μM CapF, 250 μM UDP-D-GlcNAc, 250 μM NADPH, and 1 mM compound in HBS buffer supplemented with 0.005% (v/v) Tween-20 and 5% (v/v) DMSO were incubated at 37 °C for 2 hours. The reaction was stopped by addition of 100 μL of ice-cold phenol/chloroform/isoamyl alcohol in a 25:24:1 […]. The supernatant containing the products of the reaction was mixed with 100 μL of chloroform and examined by HPLC using a CarboPac PA1 anion-exchange column (Dionex) as described previously. […]

C=C(C)c1ccccc(=O)c1O [3-isopropenyl-tropolone]
binding affinity for CapF with SPR (CapF [1]): sub-millimolar
yield of byproduct generated by CapE (area under the curve) (CapF [2]): 80%
combined areas of substrate and product peaks (CapF [2]; 91% product without inhibitor): < 18%
